Data on three compounds can be found in article PMC12627007, “HIV nucleocapsid proteins as targets for novel 1,2-benzisothiazol-3(2H)-one benzenesulfonamides: synthesis and antiretroviral activity” (Frontiers in Microbiology, 2025).

Read-outs that look alike come from different tables or passages of the source.

Series [1] is described as follows: Cytotoxicity in mock-infected MT-4 cells (MTT method). The format is cell-based. To be noted: human. On the procedure: The activity of the test compounds against the replication of HIV-1 wt and mutant strains (N119, A17, EFV^R, AZT^R, MDR, SAQ^R) and HIV-2 wt in acutely infected cells was based on the inhibition of virus-induced cytopathogenicity in MT-4 and C8166 cells, respectively. Briefly, 50 μL of culture medium containing 1 × 10^4 cells was added to each well of flat-bottom microtitre trays containing 50 μL of culture medium with or without different serial concentrations of test compounds. Then, 20 μL of an HIV suspension (containing the appropriate amount of CCID50 required to cause complete cytopathogenicity on day 4, final multiplicity of infection [m.o.i.] 0.01) was added. After incubation at 37 °C, cell viability was determined using the […] (MTT) method ([Pauwels et al., 1988]). The cytotoxicity of the test compounds was evaluated in parallel with their antiviral activity through the viability of mock-infected, treated cells, as monitored by the MTT method and described elsewhere ([Morellet et al., 1994]).

Series [2] is described as follows: microbe, parasite or virus in culture. Type of series: cell-based, HIV-1. The note with it: all tested strains (HIV-1 wt, mutants, HIV-2). On the procedure:
(§1) HIV-1IIIB and HIV-2 CBL-20 strains were obtained from the supernatants of persistently infected H9/IIIB and CEM cells, respectively. HIV-1 and HIV-2 stock solutions had titres of 4.5 × 10^7 and 1.4 × 10^6 50% cell culture infectious doses (CCID50)/ml, respectively. […] The K103R + V179D + P225H mutant (EFVR) was derived from an IIIB strain passaged in MT-4 cells in the presence of Efavirenz (up to 2 μM). N119, A17 and EFV^R stock solutions had titres of 1.2 × 10^8, 2.1 × 10^7, and 4.0 × 10^7 CCID50/ml, respectively.
(§2) The activity of the test compounds against the replication of HIV-1 wt and mutant strains (N119, A17, EFV^R, AZT^R, MDR, SAQ^R) and HIV-2 wt in acutely infected cells was based on the inhibition of virus-induced cytopathogenicity in MT-4 and C8166 cells, respectively. Briefly, 50 μL of culture medium containing 1 × 10^4 cells was added to each well of flat-bottom microtitre trays containing 50 μL of culture medium with or without different serial concentrations of test compounds. Then, 20 μL of an HIV suspension (containing the appropriate amount of CCID50 required to cause complete cytopathogenicity on day 4, final multiplicity of infection [m.o.i.] 0.01) was added.

For another series, the system named is HIV-1 IIIB strain. As to the kind of experiment: microbe, parasite or virus in culture. The note with it: for EC50: Human immunodeficiency virus 1, IIIB, MT4, read-out: EC50 HIV-1; for Selectivity Index (SI = CC50/EC50) HIV-1: IIIB strain, in round brackets. Type of series: cell-based. On the procedure: as §1, §2
In a further series the test system is HIV-1 N119 (Y181C). Nature of the series: Inhibition of virus-induced cytopathogenicity in MT-4 cells, NNRTI-resistant mutant N119. The note with it: for EC50: Human immunodeficiency virus 1, MT4, read-out: EC50 N119; for Selectivity Index (SI = CC50/EC50) N119: in round brackets. The format is cell-based. On the procedure:
as §1, §2
For orientation: Damage to the host cells serves as the signal in cytopathic effect assays.

The subject of series [3] is HIV-1 A17 (K103N + Y181C). As to the kind of experiment: Inhibition of virus-induced cytopathogenicity in MT-4 cells, NNRTI-resistant mutant A17. The note with it: for EC50: Human immunodeficiency virus 1, MT4, read-out: EC50 A17. The format is cell-based. The method, then: as §1, §2
In series [4] the test system is HIV-1 EFVR (K103R + V179D + P225H). Nature of the series: Inhibition of virus-induced cytopathogenicity in MT-4 cells, NNRTI-resistant mutant EFVR. Type of series: cell-based. To be noted: for EC50: Human immunodeficiency virus 1, MT4, read-out: EC50 EFVR; for Selectivity Index (SI = CC50/EC50) EFVR: in round brackets. The method, then:
as §1, §2

Series [5] deals with HIV-1 AZTR (67N, 70R, 215F, 219Q). As to the kind of experiment: Inhibition of virus-induced cytopathogenicity in MT-4 cells, NRTI-resistant mutant AZTR. Type of series: cell-based. The note with it: for EC50: Human immunodeficiency virus 1, MT4, read-out: EC50 AZTR; for Selectivity Index (SI = CC50/EC50) AZTR: in round brackets. On the procedure:
as §1, §2

For series [6], the system named is HIV-1 MDR (74V, 41L, 106A, 215Y). As to the kind of experiment: Inhibition of virus-induced cytopathogenicity in MT-4 cells, NRTI-resistant mutant MDR. Type of series: cell-based. The note with it: for EC50: Human immunodeficiency virus 1, MT4, read-out: EC50 MDR; for Selectivity Index (SI = CC50/EC50) MDR: in round brackets. The method, then:
as §1, §2

For series [7], the system named is HIV-1 SAQR (L10F, G48V, L90M). As to the kind of experiment: Inhibition of virus-induced cytopathogenicity in MT-4 cells, PRI-resistant mutant SAQR. Type of series: cell-based. To be noted: for EC50: Human immunodeficiency virus 1, MT4, read-out: EC50 SAQR; for Selectivity Index (SI = CC50/EC50) SAQR: in round brackets. On the procedure: as §1, §2
The subject of a further series is HIV-2 CBL-20 strain. As to the kind of experiment: Inhibition of HIV-2-induced cytopathogenicity in C8166 cells (MTT). The format is cell-based. The note with it: for EC50: Human immunodeficiency virus 2, C8166, read-out: EC50 HIV-2; for Selectivity Index (SI = CC50/EC50) HIV-2: in round brackets. The method, then: as §1, §2
Series [8] deals with T1, HIV-1 reverse transcriptase (Human immunodeficiency virus type 1 group M subtype B, UniProt P04585).
T1 construct: recombinant HIV-1 reverse transcriptase
As to the kind of experiment: Reverse transcriptase enzyme assay. To be noted: for Inhibition of recombinant HIV-1 RT: at concentrations of 30 μM. The format is biochemical.

In series [9] the target is T2, HIV-1 recombinant integrase (rIN) (Human immunodeficiency virus type 1 group M subtype B, UniProt P04585).
T2 construct: HIV-1 recombinant integrase (rIN); made in house
Nature of the series: Integrase (rIN) enzyme assays: 3'-processing and strand transfer. The format is biochemical. To be noted: for Inhibition of recombinant HIV-1 IN: at concentrations of 30 μM. The text has this:
^aCompound concentration (µM) required to reduce the amount of 3’-end-labeled duplex of 21/19mers substrates, in 3’-processing and strand-transfer reactions catalyzed by the recombinant HIV-1 integrase, by 50%. Data represent mean values for three independent determinations.

The mark [10] stands for this setting: read-out: IC50 Strand-transfer, recombinant HIV-1 integrase.

Usually CC50 stands for the concentration at which the toxic effect on the cells reaches its halfway point. In general, EC50 refers to the midpoint of the concentration-response curve. What is called IC50 is the concentration that gives 50% inhibition. In series [1], `Cc1ccc(S(=O)(=O)Nn2sc3ccccc3c2=O)cc1` [Compound 7, 4-Methyl-N-(3-oxo-1,2-benzisothiazol-2(3H)-yl)benzenesulfonamide] yielded a CC50 at 4 days of 35 ± 1 µM. In addition, the “Selectivity Index (SI) against all tested strains” value in series [2] was “around 10”. The EC50 amounted to 10 ± 3 µM in the series on HIV-1 IIIB strain; 5 ± 0.1 µM in the series with HIV-1 N119 (Y181C); 8 ± 1 µM in series [3]; 8 ± 3 µM in series [4]; 8 ± 1 µM in [5]; 6 ± 0.7 µM in [6]. In addition, the values for the EC50 (in series [7]; with HIV-2 CBL-20 strain) were 9 ± 2 µM and 4 ± 0.7 µM, respectively. Also, in the series with HIV-1 IIIB strain, the “Selectivity Index (SI = CC50/EC50) HIV-1” value came out at 3.5. Also, in the series with HIV-1 N119 (Y181C), the “Selectivity Index (SI = CC50/EC50) N119” value is 7. In [3] (in round brackets), the “Selectivity Index (SI = CC50/EC50) A17” value turned out to be 4. Besides, the “Selectivity Index (SI = CC50/EC50) EFVR” value in series [4] was 4. In [5], the “Selectivity Index (SI = CC50/EC50) AZTR” value was 4. In addition, the “Selectivity Index (SI = CC50/EC50) MDR” value in series [6] was 5. The “Selectivity Index (SI = CC50/EC50) SAQR” value in series [7] stood at 3. Further, in the series on HIV-2 CBL-20 strain, the “Selectivity Index (SI = CC50/EC50) HIV-2” value is on record as 8. Further, the IC50 in [8], in series [9] and in series [9] (setting [10]) was above 30 µM throughout. The “Inhibition of recombinant HIV-1 RT” value in [8] was “none of the benzenesulfonamides were active”. Also, the “Inhibition of recombinant HIV-1 IN” value in series [9] is “none of the benzenesulfonamides were active”.

In [1], `O=c1c2ccc(Cl)cc2sn1NS(=O)(=O)c1ccccc1Cl` [Compound 19, 2-Chloro-N-(6-chloro-3-oxo-1,2-benzisothiazol-2(3H)-yl)benzenesulfonamide] registered a CC50 at 4 days of 60 ± 4 µM. Besides, in series [2], the “Selectivity Index (SI) against all tested strains” value is “around 10”. Also, the EC50 with HIV-1 IIIB strain is 11 ± 3 µM; in the series on HIV-1 N119 (Y181C), 14 ± 3 µM; in [3], at least 33 µM; in series [4], 7 ± 2 µM; in series [5], 14 ± 1 µM; in [6] it was 11 ± 2 µM. For the same compound, the EC50 in series [7] stood at 21 ± 1 µM; with HIV-2 CBL-20 strain, 12 ± 2 µM. Also, the “Selectivity Index (SI = CC50/EC50) HIV-1” value in the series on HIV-1 IIIB strain is given as 5. For the same compound, the “Selectivity Index (SI = CC50/EC50) N119” value with HIV-1 N119 (Y181C) is listed as 4. In [4], the “Selectivity Index (SI = CC50/EC50) EFVR” value is given as 8. The “Selectivity Index (SI = CC50/EC50) AZTR” value in series [5] is 5. Besides, the “Selectivity Index (SI = CC50/EC50) MDR” value in series [6] is 5. For the same compound, in [7], the “Selectivity Index (SI = CC50/EC50) SAQR” value was found to be 2. In addition, the “Selectivity Index (SI = CC50/EC50) HIV-2” value in the series on HIV-2 CBL-20 strain was 5. In addition, the IC50 in [8], in series [9] and in [9] (setting [10]) was above 30 µM in each case. In series [8], the “Inhibition of recombinant HIV-1 RT” value is recorded as “none of the benzenesulfonamides were active”. In series [9], the “Inhibition of recombinant HIV-1 IN” value was “none of the benzenesulfonamides were active”.

For `Cc1cn([C@H]2C[C@H](N=[N+]=[N-])[C@@H](CO)O2)c(=O)[nH]c1=O` [AZT, azidothymidine, reference compound], the CC50 in series [1] (MT-4, MTT method) was at least 20 µM. Moreover, the EC50 in the series with HIV-1 IIIB strain amounted to 0.01 ± 0.003 µM; in the series with HIV-1 N119 (Y181C), 0.02 ± 0.001 µM; in series [3], 0.01 ± 0.003 µM; in [4], 0.01 ± 0.002 µM; in series [5], 0.2 ± 0.05 µM; in series [6] it was 0.2 ± 0.07 µM. Besides, the EC50 in series [7] came out at 0.01 ± 0.005 µM; in the series on HIV-2 CBL-20 strain, 0.008 ± 0.001 µM.
